Legend:
[1] = system: stress-induced hyperthermia in mice; test: stress-induced hyperthermia in mice; format: in vivo; settings: reduced from 0.92±0.09° C., p<0.001
Method: A. Lecci at al., Psychopharmacol. 101, 255-261]. At doses of about 0.1 to about 30 mg/kg p.o., the agents of the invention reverse the stress-induced hyperthermia.

Row | melting point | SMILES | further results
1 | 152 to 155 °C | CC(=O)N[C@@H]1CCC[C@@](O)(C#Cc2cccc(C)c2)C1 (racemic) [Example 6m, (±)-(1RS,3SR)-N-(3-hydroxy-3-m-tolylethynyl-cyclohexyl)-acetamide] | 
2 | 118 to 121 °C | CCOC(=O)N1CC[C@@H]2[C@H]1CCC[C@@]2(O)C#Cc1cccc(C)c1 [Example 1a, (−)-(3aR,4S,7aR)-4-Hydroxy-4-m-tolylethynyl-octahydro-indole-1-carboxylic acid ethyl ester] | 
3 | 115 to 116 °C | CCOC(=O)N1CC[C@@H]2[C@H]1CCC[C@@]2(O)C#Cc1ccc(F)cc1 (racemic) [Example 1i, (±)-(3aRS,4SR,7aRS)-4-(4-Fluoro-phenylethynyl)-4-hydroxy-octahydro-indole-1-carboxylic acid ethyl ester] | 
4 | 106 to 107 °C | CCOC(=O)N[C@@H]1CCC[C@@](O)(C#Cc2cccc(C)c2)C1 (racemic) [Example 6o, (±)-(1RS,3SR)-(3-Hydroxy-3-m-tolylethynyl-cyclohexyl)-carbamic acid ethyl ester] | 
5 | 121 to 123 °C | CCOC(=O)N[C@@H]1CCC[C@@](O)(C#Cc2cccc(F)c2)C1 (racemic) [Example 6u, (±)-(1RS,3SR)-[3-(3-Fluoro-phenylethynyl)-3-hydroxy-cyclohexyl]-carbamic acid ethyl ester] | 
6 |  | COC(=O)N1CC[C@@H]2[C@H]1CCC[C@@]2(O)C#Cc1cccc(C)c1 [Example 1, (−)-(3aR,4S,7aR)-4-Hydroxy-4-m-tolylethynyl-octahydro-indole-1-carboxylic acid methyl ester] | stress-induced hyperthermia ([1]; 0.1 mg/kg p.o.): 0.56±0.06 °C; stress-induced hyperthermia ([1]; 1 mg/kg p.o.): 0.42±0.06 °C; stress-induced hyperthermia ([1]; 10 mg/kg p.o.): 0.18±0.05 °C
7 | 195.5 to 196.5 °C | Cc1cccc(C#C[C@]2(O)CCC[C@@H]3[C@H]2CCN3C(=O)c2ccco2)c1 [Example 1b, (−)-(3aR,4S,7aR)-Furan-2-yl-(4-hydroxy-4-m-tolylethynyl-octahydro-indol-1-yl)-methanone] | 
